# According to PMC3545233 (Scientific Reports, 2013):
# Where two headings read alike, the source gives them in different places.
# How the values were obtained:
# recombinant agAP-AChE [1] = target: T1, recombinant agAP-AChE (Anopheles gambiae, UniProt Q869C3); assay: Time-course and dilution experiments of AChE inhibition; type: biochemical, Anopheles gambiae sensu stricto; settings: for inhibition at 50 µM: read-out: inhibition of the enzyme activity, agAP-AChE, 50 μM NEM
# recombinant hAChE = recombinant hAChE (Homo sapiens, UniProt P22303); assay: as above; type: biochemical
# Sequence of recombinant hAChE (P22303 32-614): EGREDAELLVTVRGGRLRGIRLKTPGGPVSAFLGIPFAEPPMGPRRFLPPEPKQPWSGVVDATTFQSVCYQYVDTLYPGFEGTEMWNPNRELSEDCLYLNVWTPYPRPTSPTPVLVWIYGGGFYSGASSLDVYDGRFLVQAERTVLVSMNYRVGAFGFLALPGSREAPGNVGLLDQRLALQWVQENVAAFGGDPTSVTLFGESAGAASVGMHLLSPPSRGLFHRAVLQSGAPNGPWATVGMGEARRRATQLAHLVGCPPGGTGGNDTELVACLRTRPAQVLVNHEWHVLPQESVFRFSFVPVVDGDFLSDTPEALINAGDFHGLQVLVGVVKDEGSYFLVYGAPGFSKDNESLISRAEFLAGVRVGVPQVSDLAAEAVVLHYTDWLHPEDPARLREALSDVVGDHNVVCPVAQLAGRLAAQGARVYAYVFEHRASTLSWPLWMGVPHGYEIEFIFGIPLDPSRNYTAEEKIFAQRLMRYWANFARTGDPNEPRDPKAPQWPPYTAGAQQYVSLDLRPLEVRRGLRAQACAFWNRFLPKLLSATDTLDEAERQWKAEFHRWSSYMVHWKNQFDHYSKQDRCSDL
# recombinant agAP-AChE [2] = target: T1, recombinant agAP-AChE; type: biochemical, Anopheles gambiae sensu stricto; settings: ≤15 min, paraoxon 333–2000 nM
# recombinant agAP-AChE [3] = target: T1, recombinant agAP-AChE; assay: biochemical; parameters: species or system Anopheles gambiae sensu stricto
# T1 sequence (Q869C3 39-737): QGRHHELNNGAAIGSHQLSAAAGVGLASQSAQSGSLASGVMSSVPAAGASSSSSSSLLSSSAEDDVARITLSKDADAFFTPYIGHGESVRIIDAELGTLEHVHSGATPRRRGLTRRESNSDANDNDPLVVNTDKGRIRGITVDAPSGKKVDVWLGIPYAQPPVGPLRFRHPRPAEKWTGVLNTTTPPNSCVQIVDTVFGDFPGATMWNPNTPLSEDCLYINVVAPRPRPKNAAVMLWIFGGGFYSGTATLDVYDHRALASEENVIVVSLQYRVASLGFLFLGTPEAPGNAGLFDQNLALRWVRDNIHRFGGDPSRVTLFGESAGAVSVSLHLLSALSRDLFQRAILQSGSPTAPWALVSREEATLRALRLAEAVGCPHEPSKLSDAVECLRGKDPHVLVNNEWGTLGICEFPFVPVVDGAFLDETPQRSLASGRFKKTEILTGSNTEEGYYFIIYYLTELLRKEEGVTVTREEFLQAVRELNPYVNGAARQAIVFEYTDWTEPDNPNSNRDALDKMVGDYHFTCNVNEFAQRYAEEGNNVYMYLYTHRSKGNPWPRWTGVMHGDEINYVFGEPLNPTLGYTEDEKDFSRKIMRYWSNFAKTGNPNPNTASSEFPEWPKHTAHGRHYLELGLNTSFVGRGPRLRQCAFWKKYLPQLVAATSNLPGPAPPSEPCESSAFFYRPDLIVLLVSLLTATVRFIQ
SMILES,irreversible inhibition (time-course and dilution experiments) (recombinant agAP-AChE [1]; agAP-AChE),irreversible inhibition (time-course and dilution experiments) (recombinant hAChE),Ki (recombinant agAP-AChE [3]) [nM],other results
"CCN1C(=O)CCC1=O [1-ethylpyrrolidine-2,5-dione, reference compound]",,,,"irreversible or reversible inhibition (recombinant agAP-AChE [1]; agAP-AChE, inhibitor concentrations up to 10 mM, data not shown): did not irreversibly or reversibly inhibit; irreversible or reversible inhibition (recombinant hAChE; inhibitor concentrations up to 10 mM, data not shown): did not irreversibly or reversibly inhibit"
"Cl.O=C1C=CC(=O)N1CCCCCCCCCCCCCCCCCCN1CCCCC1 [PY18, 1-(18-(Piperidin-1-yl)octadecyl)-1H-pyrrole-2,5-dione hydrochloride]",irreversibly inhibited agAP-AChE,not hAChE,,
"O=C1C=CC(=O)N1CCCCCCCCCCCCCCCCCCCC[n+]1ccccc1.[Br-] [PM20, 1-(20-(2,5-Dioxo-2,5-dihydro-1H-pyrrol-1-yl)eicosyl)pyridinium bromide]",irreversibly inhibited agAP-AChE,not hAChE,400,"decrease of the enzyme activity (recombinant agAP-AChE [1]; agAP-AChE, combination of 50 μM NEM and 6.7 nM PM20 for 30 minutes): 94 ± 3%; inhibition at 0.0067 µM (recombinant agAP-AChE [1]; read-out: enzyme activity inhibited, agAP-AChE, incubated with 50 μM NEM, then treated with 6.7 nM PM20 for 30 minutes): 96 ± 4%; kinact/KI fold higher than that of paraoxon (recombinant agAP-AChE [2]): 239 fold"
"O=C([O-])C(F)(F)F.O=C1CCC(=O)N1CCCCCCCCCCCCCCCCCCCC[n+]1ccccc1 [PMS20, 1-(20-(2,5-Dioxopyrrolidin-1-yl)eicosyl)pyridin-1-ium 2,2,2-trifluoroacetate]",irreversibly inhibited neither,irreversibly inhibited neither,420,
"CCOP(=O)(OCC)Oc1ccc([N+](=O)[O-])cc1 [Paraoxon, paraoxon, reference compound]",irreversibly inhibited both enzymes,irreversibly inhibited both enzymes,,
"Cl.O=C1CCC(=O)N1CCCCCCCCCCCCCCCCCCN1CCCCC1 [PYS18, 1-(18-(Piperidin-1-yl)octadecyl)pyrrolidine-2,5-dione hydrochloride]",irreversibly inhibited neither,irreversibly inhibited neither,26200,
"CCN1C(=O)C=CC1=O [NEM, N-ethylmaleimide, reference compound]",inability of NEM to irreversibly inhibit agAP-AChE,,,inhibition at 50 µM (recombinant agAP-AChE [1]; 30 minutes): 40 ± 1%; inhibition at 50 µM (recombinant agAP-AChE [1]; immediately): 36 ± 2%
